The results in this text go back to patent US20200239530A1, “COMPOUNDS AND METHODS OF MODULATING PROTEIN DEGRADATION” (Vividion Therapeutics, Inc., priority 2017, published 2020).

What all share (assay): Cysteine liganding, probe competition
Common to all, as to assay type: binding

The target of assay [1] is T1, CDK17 Cyclin-dependent kinase 17 (Homo sapiens, UniProt Q00537).
T1 construct: 200 μL of lysate containing 5 mg/ml proteome was treated with 2 μL of 100× compound stock; endogenous in cells
The following applies: for Liganded: CDK17 Res# 233, uniprot Q00537. The method, boiled down: (§1)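 Lysates from probe-sonicated cells in PBS (5 mg/ml proteome) were exposed to compound for 1 hr at 25° C, then labelled with desthiobiotin iodoacetamide probe (10 mM stock) for 1 hr at 25° C. Probe-tagged peptides were streptavidin-enriched after trypsin digestion.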

The target of assay [2] is T2, CKB Creatine kinase B-type (Homo sapiens, UniProt P12277).
T2 construct: 200 μL of lysate containing 5 mg/ml proteome was treated with 2 μL of 100× compound stock; endogenous in cells
The method, boiled down: as §1

In assay [3] the target is T3, FBXO30 F-box only protein 30 (Homo sapiens, UniProt Q8TB52).
T3 construct: Cells were resuspended in cold PBS on ice and sonicated with a probe sonicator to achieve lysis; endogenous in cells
T3 sequence (Q8TB52 1-745): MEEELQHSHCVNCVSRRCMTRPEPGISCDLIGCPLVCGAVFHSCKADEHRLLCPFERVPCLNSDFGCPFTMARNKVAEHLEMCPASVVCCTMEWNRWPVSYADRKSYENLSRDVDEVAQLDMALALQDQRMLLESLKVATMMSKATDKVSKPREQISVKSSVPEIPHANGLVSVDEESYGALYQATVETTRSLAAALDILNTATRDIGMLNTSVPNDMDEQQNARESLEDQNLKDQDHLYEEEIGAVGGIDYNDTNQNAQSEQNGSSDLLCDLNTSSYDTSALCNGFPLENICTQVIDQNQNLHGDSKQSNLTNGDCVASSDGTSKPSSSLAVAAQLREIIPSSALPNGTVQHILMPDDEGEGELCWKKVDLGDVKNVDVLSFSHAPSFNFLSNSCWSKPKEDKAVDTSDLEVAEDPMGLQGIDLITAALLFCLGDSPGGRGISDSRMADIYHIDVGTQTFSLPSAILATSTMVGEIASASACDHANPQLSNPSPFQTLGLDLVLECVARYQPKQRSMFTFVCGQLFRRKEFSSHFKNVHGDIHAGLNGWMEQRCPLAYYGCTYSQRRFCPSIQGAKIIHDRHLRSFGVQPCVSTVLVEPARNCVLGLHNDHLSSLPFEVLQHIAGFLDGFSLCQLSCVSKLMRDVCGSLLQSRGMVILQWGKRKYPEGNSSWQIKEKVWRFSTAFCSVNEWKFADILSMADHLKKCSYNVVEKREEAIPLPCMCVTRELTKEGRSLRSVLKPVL
The method, boiled down: as §1

The target of assay [4] is T4, RNF214 RING finger protein 214 (Homo sapiens, UniProt Q8ND24).
T4 construct: Cells were resuspended in cold PBS on ice and sonicated with a probe sonicator to achieve lysis; endogenous in cells
As to conditions: for Liganded: RNF214 Res# 655, uniprot Q8ND24. The method, boiled down: as §1

Molecules are shown by their SMILES.

T4 sequence (Q8ND24 whole entry): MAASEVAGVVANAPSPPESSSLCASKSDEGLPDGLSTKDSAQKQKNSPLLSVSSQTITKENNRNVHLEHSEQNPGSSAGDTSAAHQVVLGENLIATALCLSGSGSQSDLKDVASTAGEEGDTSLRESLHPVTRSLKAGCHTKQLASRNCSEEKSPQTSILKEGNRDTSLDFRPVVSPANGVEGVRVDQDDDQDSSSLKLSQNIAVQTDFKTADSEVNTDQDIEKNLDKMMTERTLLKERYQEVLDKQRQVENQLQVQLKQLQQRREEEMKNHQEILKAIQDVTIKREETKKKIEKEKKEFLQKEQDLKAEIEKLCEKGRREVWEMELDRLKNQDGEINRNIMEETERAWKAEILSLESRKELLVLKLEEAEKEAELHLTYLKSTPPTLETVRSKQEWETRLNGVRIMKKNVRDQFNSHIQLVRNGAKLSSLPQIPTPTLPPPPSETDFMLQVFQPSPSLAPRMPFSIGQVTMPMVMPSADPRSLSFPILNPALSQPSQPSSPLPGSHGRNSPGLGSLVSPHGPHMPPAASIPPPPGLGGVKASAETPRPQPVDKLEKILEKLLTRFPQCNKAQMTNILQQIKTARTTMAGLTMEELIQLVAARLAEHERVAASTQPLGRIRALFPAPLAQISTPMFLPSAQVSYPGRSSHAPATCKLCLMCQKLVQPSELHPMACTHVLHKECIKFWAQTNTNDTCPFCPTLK
T1 sequence (Q00537 whole entry): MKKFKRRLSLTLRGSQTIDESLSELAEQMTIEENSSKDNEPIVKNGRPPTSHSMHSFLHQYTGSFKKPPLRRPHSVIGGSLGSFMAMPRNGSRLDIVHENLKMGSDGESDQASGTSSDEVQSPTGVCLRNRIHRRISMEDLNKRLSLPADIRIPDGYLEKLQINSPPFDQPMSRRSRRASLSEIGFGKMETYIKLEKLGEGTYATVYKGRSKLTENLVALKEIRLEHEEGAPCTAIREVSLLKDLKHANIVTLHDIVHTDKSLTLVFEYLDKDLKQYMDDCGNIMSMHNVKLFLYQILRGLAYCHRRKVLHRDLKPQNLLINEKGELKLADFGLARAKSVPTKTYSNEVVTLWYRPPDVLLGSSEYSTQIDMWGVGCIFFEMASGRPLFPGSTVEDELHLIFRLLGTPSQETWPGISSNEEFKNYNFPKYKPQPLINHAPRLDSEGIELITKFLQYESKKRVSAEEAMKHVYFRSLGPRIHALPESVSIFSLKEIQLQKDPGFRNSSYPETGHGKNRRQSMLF
T2 sequence (P12277 whole entry): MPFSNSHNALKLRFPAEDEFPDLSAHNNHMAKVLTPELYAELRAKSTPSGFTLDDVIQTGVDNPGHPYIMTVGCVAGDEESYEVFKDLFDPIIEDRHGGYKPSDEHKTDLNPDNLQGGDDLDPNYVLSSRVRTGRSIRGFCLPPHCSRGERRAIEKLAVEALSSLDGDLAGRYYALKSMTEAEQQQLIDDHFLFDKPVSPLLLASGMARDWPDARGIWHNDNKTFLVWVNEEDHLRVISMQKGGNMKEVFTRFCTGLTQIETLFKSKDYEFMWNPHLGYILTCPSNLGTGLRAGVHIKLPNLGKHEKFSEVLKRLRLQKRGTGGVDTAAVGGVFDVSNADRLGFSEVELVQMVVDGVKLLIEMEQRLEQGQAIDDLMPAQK

In the case of `COc1ccc2c(c1)CCCN2C(=O)CCl` [KB02], the Liganded entry in assay [1] is listed as “YES”; in assay [2] (CKB Res# 283, uniprot P12277), “YES”; in assay [3] (FBXO30 Res# 725, uniprot Q8TB52) it was “YES”; in assay [4], “YES”.
`O=C(CCl)Nc1cc(C(F)(F)F)cc(C(F)(F)F)c1` [KBO3]: the Liganded result in assay [1] and in assay [4] was “YES” throughout. Further, the “100 Max” value is 50.67 in assay [1] (uniprot Q00537); 23.24 in assay [2] (uniprot P12277); 10.4 in assay [3] (uniprot Q8TB52); 35.5% in assay [4] (uniprot Q8ND24, unit assumed). Besides, the 100 ave in assay [1] (uniprot Q00537) amounted to 28.2075; in assay [2] (uniprot P12277), 15.155; in assay [3] (uniprot Q8TB52) it was 4.3; in assay [4] (uniprot Q8ND24), 24.8. Moreover, the 500 ave worked out at 79.225 in assay [1] (uniprot Q00537), 71.73 in assay [2] (uniprot P12277), 25.0 in assay [3] (uniprot Q8TB52) and 65.9 in assay [4] (uniprot Q8ND24). In addition, the “500 Max” value in assay [1] (uniprot Q00537, in % (unit assumed)) stood at 80.44; in assay [2] (uniprot P12277, in % (unit assumed)) it was 71.73; in assay [3] (uniprot Q8TB52, unit assumed), 39.5%; in assay [4] (uniprot Q8ND24), 96.4.
